Reference: publication PMC7746945 (Neuro-Oncology, 2020)

Conditions: daily for 42 days, with olaparib 150 mg 3 days/week
Excerpt: Up to 3 cycles were delivered in the absence of disease progression or unacceptable toxicity. Patients progression free after 3 cycles were eligible for further cycles if approved by sponsor. […] Neurosurgical resection was mandatory in the expansion cohort.
If 2 or more of 6 patients at one dose level experienced a dose limiting toxicity (DLT), this was considered “not tolerated” and designated the maximum administered dose (MAD).

Cn1nnc2c(C(N)=O)ncn2c1=O [TMZ, temozolomide]
MTD / RP2D, TMZ dose: 75 mg/m^2
